Measured values taken from PubChem BioAssay AID248 (DTP/NCI, 2004).
Values joined by “and” are separate entries in the source; they are usually repeats but may differ in a detail not shown here. Equal entries are not always repeated. Inconclusive results and toxic doses are left out. Cut-off read from the data, not from the text of the source: active = T/C of 150% or more; inactive = T/C below 125%.

Tested on: L1210 leukemia ip in BDF1 mice, survival T/C
Assay: NCI In Vivo Anticancer Drug Screen. Data for tumor model L1210 Leukemia (intraperitoneal) in B6D2F1 (BDF1) mice
Conditions: endpoint: mean survival time, higher = longer survival
Method in brief: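 Ratio derived from survival: compound-dosed mice over vehicle-dosed mice, all bearing a transplantable tumor.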

[1] = dose: 50.0 mg/kg/injection, schedule: Q01DX009 (ip), vehicle: saline with Tween-80
[2] = dose: 100.0 mg/kg/injection, schedule: Q04DX002 (ip), vehicle: Klucel (hydroxypropylcellulose) (HPC)
[3] = dose: 400.0 mg/kg/injection, schedule: Q04DX002 (ip), vehicle: Klucel (hydroxypropylcellulose) (HPC)

Measured: T/C

CCCCCC(=O)N(CCCC)CCCC
inactive: dose: 100.0 mg/kg/injection, schedule: Q01DX001 (ip), vehicle: carboxymethylcellulose (CMC) 103 % of control | dose: 100.0 mg/kg/injection, schedule: Q01DX009 (ip), vehicle: carboxymethylcellulose (CMC) 97 % of control and 98 % of control | dose: 100.0 mg/kg/injection, schedule: Q04DX002 (ip), vehicle: carboxymethylcellulose (CMC) 102 % of control and 103 % of control | dose: 100.0 mg/kg/injection, schedule: Q04DX003 (ip), vehicle: carboxymethylcellulose (CMC) 98 % of control | dose: 200.0 mg/kg/injection, schedule: Q01DX001 (ip), vehicle: carboxymethylcellulose (CMC) 110 % of control | dose: 200.0 mg/kg/injection, schedule: Q01DX009 (ip), vehicle: carboxymethylcellulose (CMC) 94 % of control and 103 % of control | dose: 200.0 mg/kg/injection, schedule: Q04DX002 (ip), vehicle: carboxymethylcellulose (CMC) 97 % of control and 105 % of control | dose: 200.0 mg/kg/injection, schedule: Q04DX003 (ip), vehicle: carboxymethylcellulose (CMC) 97 % of control | dose: 400.0 mg/kg/injection, schedule: Q01DX001 (ip), vehicle: carboxymethylcellulose (CMC) 106 % of control | dose: 400.0 mg/kg/injection, schedule: Q01DX009 (ip), vehicle: carboxymethylcellulose (CMC) 98 % of control | dose: 400.0 mg/kg/injection, schedule: Q04DX002 (ip), vehicle: carboxymethylcellulose (CMC) 97 % of control and 109 % of control | dose: 400.0 mg/kg/injection, schedule: Q04DX003 (ip), vehicle: carboxymethylcellulose (CMC) 97 % of control

O=C(Nc1cccc(Cl)c1)Oc1cccc2c1CCC2
inactive: dose: 100.0 mg/kg/injection, schedule: Q04DX002 (sc), vehicle: olive oil, sesame oil, peanut oil 97 % of control | dose: 200.0 mg/kg/injection, schedule: Q04DX002 (sc), vehicle: olive oil, sesame oil, peanut oil 94 % of control | dose: 400.0 mg/kg/injection, schedule: Q04DX002 (sc), vehicle: olive oil, sesame oil, peanut oil 102 % of control

CCOC(=O)COCC(C)=O
inactive: [1] 92 % of control | dose: 100.0 mg/kg/injection, schedule: Q01DX009 (ip), vehicle: saline with Tween-80 96 % of control | dose: 200.0 mg/kg/injection, schedule: Q01DX009 (ip), vehicle: saline with Tween-80 96 % of control

COc1ccc(CCNC(=O)Cc2cc(OCc3ccccc3)c(OC)cc2[N+](=O)[O-])cc1OC
inactive: dose: 100.0 mg/kg/injection, schedule: Q04DX003 (ip), vehicle: water 90 % of control | dose: 200.0 mg/kg/injection, schedule: Q01DX001 (ip), vehicle: water 91 % of control | dose: 200.0 mg/kg/injection, schedule: Q04DX003 (ip), vehicle: water 91 % of control | dose: 400.0 mg/kg/injection, schedule: Q01DX001 (ip), vehicle: water 96 % of control | dose: 400.0 mg/kg/injection, schedule: Q04DX003 (ip), vehicle: water 91 % of control

CCOC(=O)C(=CN1CCCCC1)C(=O)OCC
inactive: dose: 100.0 mg/kg/injection, schedule: Q04DX003 (ip), vehicle: saline 98 % of control | dose: 200.0 mg/kg/injection, schedule: Q04DX003 (ip), vehicle: saline 101 % of control | dose: 400.0 mg/kg/injection, schedule: Q04DX003 (ip), vehicle: saline 95 % of control

CCOC(=O)C1C2C=CC(N3C(=O)c4ccccc4C3=O)CC21 (stereo unspecified)
inactive: dose: 100.0 mg/kg/injection, schedule: Q01DX009 (ip), vehicle: gum acacia 92 % of control | dose: 200.0 mg/kg/injection, schedule: Q01DX009 (ip), vehicle: gum acacia 91 % of control | dose: 400.0 mg/kg/injection, schedule: Q01DX009 (ip), vehicle: gum acacia 97 % of control

NCCNC(=O)c1ccccc1
inactive: dose: 100.0 mg/kg/injection, schedule: Q01DX009 (ip), vehicle: saline 94 % of control | dose: 200.0 mg/kg/injection, schedule: Q01DX009 (ip), vehicle: saline 100 % of control

N#CCOc1ccc(Cl)cc1
inactive: dose: 6.25 mg/kg/injection, schedule: Q01DX009 (ip), vehicle: Klucel (hydroxypropylcellulose) (HPC) 96 % of control | dose: 12.5 mg/kg/injection, schedule: Q01DX009 (ip), vehicle: Klucel (hydroxypropylcellulose) (HPC) 97 % of control | dose: 25.0 mg/kg/injection, schedule: Q01DX009 (ip), vehicle: Klucel (hydroxypropylcellulose) (HPC) 95 % of control and 108 % of control | [2] 87 % of control

NC(CSS(=O)(=O)O)=NCCc1ccccn1
inactive: dose: 12.5 mg/kg/injection, schedule: Q04DX002 (ip), vehicle: Klucel (hydroxypropylcellulose) (HPC) 100 % of control | dose: 25.0 mg/kg/injection, schedule: Q04DX002 (ip), vehicle: Klucel (hydroxypropylcellulose) (HPC) 88 % of control | dose: 50.0 mg/kg/injection, schedule: Q04DX002 (ip), vehicle: Klucel (hydroxypropylcellulose) (HPC) 91 % of control | [3] 90 % of control

O=C(NC(=S)Nc1ccc([N+](=O)[O-])cc1Cl)c1ccccc1F
inactive: [2] 91 % of control | dose: 200.0 mg/kg/injection, schedule: Q04DX002 (ip), vehicle: Klucel (hydroxypropylcellulose) (HPC) 105 % of control | [3] 105 % of control

CCOc1ccc2c(ccc(/C=C\c3ccc(O)c4ccccc34)[n+]2C)c1
inactive: dose: 15.0 mg/kg/injection, schedule: Q01DX001 (ip), vehicle: saline 96 % of control | dose: 30.0 mg/kg/injection, schedule: Q01DX001 (ip), vehicle: saline 96 % of control | dose: 60.0 mg/kg/injection, schedule: Q01DX001 (ip), vehicle: saline 97 % of control | dose: 75.0 mg/kg/injection, schedule: Q01DX001 (ip), vehicle: saline 106 % of control | dose: 150.0 mg/kg/injection, schedule: Q01DX001 (ip), vehicle: saline 101 % of control

CC(=O)OCC1OC(=O)C(C)N(C)C(=O)CN(C)C(=O)C2C(=O)CC(C)N2C(=O)C(C(C)C)NC(=O)C1NC(=O)c1c2nc3c(C(=O)NC4C(=O)NC(C(C)C)C(=O)N5C(C)CC(OC(C)=O)C5C(=O)N(C)CC(=O)N(C)C(C(C)C)C(=O)OC4C)ccc(C)c3oc-2c(C)c(=O)c1N (stereo unspecified)
inactive: dose: 0.05 mg/kg/injection, schedule: Q01DX009 (ip), vehicle: saline with Tween-80 94 % of control | dose: 0.1 mg/kg/injection, schedule: Q01DX009 (ip), vehicle: saline with Tween-80 102 % of control | dose: 0.15 mg/kg/injection, schedule: Q04DX003 (ip), vehicle: saline with Tween-80 95 % of control | dose: 0.2 mg/kg/injection, schedule: Q01DX009 (ip), vehicle: saline with Tween-80 112 % of control | dose: 0.3 mg/kg/injection, schedule: Q04DX003 (ip), vehicle: saline with Tween-80 100 % of control | dose: 0.4 mg/kg/injection, schedule: Q01DX001 (ip), vehicle: saline with Tween-80 102 % of control | dose: 0.4 mg/kg/injection, schedule: Q01DX009 (ip), vehicle: saline with Tween-80 118 % of control | dose: 0.6 mg/kg/injection, schedule: Q04DX003 (ip), vehicle: saline with Tween-80 111 % of control | dose: 0.8 mg/kg/injection, schedule: Q01DX001 (ip), vehicle: saline with Tween-80 118 % of control | dose: 1.2 mg/kg/injection, schedule: Q04DX003 (ip), vehicle: saline with Tween-80 118 % of control | dose: 1.6 mg/kg/injection, schedule: Q01DX001 (ip), vehicle: saline with Tween-80 112 % of control | dose: 2.4 mg/kg/injection, schedule: Q04DX003 (ip), vehicle: saline with Tween-80 119 % of control | dose: 3.2 mg/kg/injection, schedule: Q01DX001 (ip), vehicle: saline with Tween-80 119 % of control | dose: 6.4 mg/kg/injection, schedule: Q01DX001 (ip), vehicle: saline with Tween-80 102 % of control

CCCCCOS(=O)(=O)c1ccc(Cl)c([N+](=O)[O-])c1
inactive: dose: 12.5 mg/kg/injection, schedule: Q01DX009 (ip), vehicle: saline with Tween-80 93 % of control | dose: 25.0 mg/kg/injection, schedule: Q01DX009 (ip), vehicle: saline with Tween-80 87 % of control | dose: 25.0 mg/kg/injection, schedule: Q04DX003 (ip), vehicle: saline with Tween-80 95 % of control | [1] 98 % of control | dose: 50.0 mg/kg/injection, schedule: Q04DX003 (ip), vehicle: saline with Tween-80 90 % of control
